pEC50: −log10 of the molar value.
Target: T1, acetylcholine muscarinic M1 receptor (Homo sapiens, UniProt P11229)
T1 construct: expressed in transfected cells; host or cells: CHOnfat (CHO cells; also called CHOK1/hM1), selected with Geneticin
T1 sequence (P11229 1-460): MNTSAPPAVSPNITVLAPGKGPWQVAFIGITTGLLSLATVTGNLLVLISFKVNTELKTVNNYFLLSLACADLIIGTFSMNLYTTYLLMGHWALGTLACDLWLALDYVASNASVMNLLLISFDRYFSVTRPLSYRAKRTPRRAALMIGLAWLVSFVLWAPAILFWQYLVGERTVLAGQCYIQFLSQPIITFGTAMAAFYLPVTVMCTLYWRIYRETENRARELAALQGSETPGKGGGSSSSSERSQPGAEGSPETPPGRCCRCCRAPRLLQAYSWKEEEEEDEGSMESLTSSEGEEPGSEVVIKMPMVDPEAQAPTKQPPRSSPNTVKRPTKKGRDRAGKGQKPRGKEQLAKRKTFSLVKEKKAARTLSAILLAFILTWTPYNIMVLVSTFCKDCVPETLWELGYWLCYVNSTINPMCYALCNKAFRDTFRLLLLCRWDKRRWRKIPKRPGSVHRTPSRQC
Test: muscarinic FLIPR assay: potentiation of acetylcholine (EC20)-stimulated intracellular calcium in CHOnfat/hM1 cells
Type: cell-based
Details: 4 min preincubation, then EC20 acetylcholine (3 nM final), read-out: IP Value (inflection point)
Method: The assay studies the effect of one or several concentrations of test compounds on basal or acetylcholine-stimulated Ca^2+ levels using FLIPR.
Compounds are prepared and subjected to a preincubation period of 4 min. Thereafter, a single EC20 concentration of acetylcholine is added to each well (3 nM final). The intracellular Ca^2+ level of each sample is measured and compared to an acetylcholine control to determine any modulatory activity.
Cells: CHOnfat/hM1, hM2, hM3 or hM4 cells are plated 24 hr before the assay at a density of 18,000 cells/well (100 μL) in a 384 well plate. CHOnfat/hM1 and CHOnfat/hM3 Growth Medium: 90% DMEM (Hi Glucose); 10% HI FBS; 2 mM L-glutamine; 0.1 mM NEAA; Pen-Strep; and 1 mg/ml Geneticin, are added. For M2Gqi5CHOnfat and M4Gqi5CHOnfat cells, an additional 600 μg/ml hygromycin is added.
Equipment: 384 well plate, 120 μL addition plate; 96-well Whatman 2 ml Uniplate Incubator, 37° C., 5% CO2; Skatron EMBLA-384 Plate Washer; Multimek Pipetting System; Genesis Freedom 200 System; Mosquito System; Temo Nanolitre Pipetting System; and FLIPR^384 Fluorometric Imaging Plate Reader System are used.
Buffers. Assay Buffer: Hanks Balanced Salt Solution, with 20 mM Hepes, 2.5 mM Probenecid (Sigma P-8761) first dissolved in 1N aqueous NaOH, 1% Bovine Serum Albumin (Sigma A-9647). Dye Loading Buffer: Assay Buffer plus 1% Fetal Bovine Serum and Fluo-4AM/Pluronic Acid Mixture. 2 mM Fluo-4AM ester stock in DMSO (Molecular Probes F-14202) Concentration of 2 μM in buffer for a final concentration of 1 μM in Assay. 20% Pluronic Acid Solution stock, with a concentration of 0.04% in Buffer, 0.02% in Assay.
65 μl of 2 mM Fluo-4AM are mixed with 130 μL of 20% Pluronic Acid. The resulting solution and 650 μL FBS is added to the assay buffer for a total volume of 65 mL. Positive Controls: 4-Br-A23187: 10 mM in DMSO; final concentration 10 μM. Acetylcholine: 10 mM in water, working stock at both 20 μM and 30 μM in assay buffer, final concentration of 10 μM. This is used to check the maximum stimulation of the CHOK1/hM1 cells. 20 μM (2×) acetylcholine is added in the preincubation part of the assay, and the 30 μM (3×) stock is added in the second part. (EC20) Acetylcholine: 10 mM in water, working stock of 9 nM (3×), and final concentration in assay is 3 nM. This is used after the preincubation with test compounds. Addition of the EC20 Acetylcholine to each well with a test compound will ascertain any modulator activity. 24 wells contain 3 nM Acetylcholine alone as a control.
Determining Activity of Putative Compounds:
Screening Plate: Compounds are titrated in 96-well plates (columns 2-11), 100% DMSO, started at a concentration of 15 mM (150× stock concentration), and 3-fold serial dilutions using Genesis Freedom200 System. Four 96-well plates are combined into a 384-well plate using Mosquito Nanolitre Pipetting System by transferring 1 μl of serial diluted compounds to each well, and 1 mM acetylcholine (100× stock concentration) were added as a control. Using Temo, 49 μl assay buffer is added to each well of the 384-well plate right before assay.
In a 96-well Whatman 2 ml Uniplate, 9 nM Acetylcholine (3×) is pipetted into wells corresponding to the screening compounds and into control wells. The 30 μM acetylcholine control (3×) is added into control wells and the 3× agonist plate is transferred into a 384-well plate.
Cells are washed three times with 100 μL of buffer, leaving 30 μL of buffer in each well. Using Multimek, 30 μL of Dye Loading Buffer is added into each well and incubated at 37° C., 5% CO2 for up to one hr.
After 60 min, the cells are washed three times with 100 μL of buffer, leaving 30 μL of buffer in each well. The cell plate, screening plate, and agonist addition plates are placed on the platform in the FLIPR and the door is closed. A signal test to check background fluorescence and basal fluorescence signal is performed. Laser intensity is adjusted if necessary. […]

Row | SMILES | pEC50
1 | O=C(O)c1cc(CN2CCc3cc(Cl)ccc3C2)c2ccccn2c1=O [Example 1, 1-[(6-chloro-3,4-dihydroisoquinolin-2(1H)-yl)methyl]-4-oxo-4H-quinolizine-3-carboxylic acid] | 6.29
2 | O=C(O)c1cc(CN2CCc3cnccc3C2)c2ccccn2c1=O [Example 54] | 6.05
3 | O=C(O)c1cc(CN2CCn3c(-c4ccccc4)cnc3C2)c2ccccn2c1=O [Example 69] | 5.38
4 | O=C(O)c1cc(CN2CCc3cc(-c4ccccc4)ccc3C2)c2ccccn2c1=O [Example 87, 4-Oxo-1-[(6-phenyl-3,4-dihydroisoquinolin-2(1H)-yl)methyl]-4H-quinolizine-3-carboxylic acid] | 5.21
5 | O=C(O)c1cc(CN2CCc3ccccc3C2c2ccccc2F)c2ccccn2c1=O (centres unmarked) [Example 18] | 6.82
6 | O=C(O)c1cc(CN2CCc3ccccc3C2)c2ccccn2c1=O [Example 6] | 5.77
7 | N#Cc1ccc2c(c1)CCN(Cc1cc(C(=O)O)c(=O)n3ccccc13)C2 [Example 88, 1-[(6-cyano-3,4-dihydroisoquinolin-2(1H)-yl)methyl]-4-oxo-4H-quinolizine-3-carboxylic acid] | 4.92
8 | Cc1ccc2c(c1)CCN(Cc1cc(C(=O)O)c(=O)n3ccccc13)C2 [Example 89, 1-[(6-methyl-3,4-dihydroisoquinolin-2(1H)-yl)methyl]-4-oxo-4H-quinolizine-3-carboxylic acid] | 5.17
9 | CCOC(=O)C1c2ccccc2CCN1Cc1cc(C(=O)O)c(=O)n2ccccc12 (centres unmarked) [Example 11] | 6.54
10 | O=C(O)c1cc(CN2Cc3ccccc3C[C@@H]2CO)c2ccccn2c1=O [Example 7] | 5.05
11 | O=C(O)c1cc(CN2CCc3ccccc3C2c2ccncc2)c2ccccn2c1=O (centres unmarked) [Example 17] | 7.08

Reference: patent publication US8173672B2, “Quinolizidinone M1 receptor positive allosteric modulators” (Merck Sharp & Dohme Corp., priority 2008, dated 2012)
